# Measured values as given in PubChem BioAssay (NCI).
#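 96-well plates; 48 h exposure; 5 concentrations. Endpoints by linear interpolation between flanking doses. Not reached: highest tested concentration assigned. TGI marks complete inhibition of growth.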
# Assays:
# Test in all cases: NCI anticancer screen, dose series, 48 h
# SK-MEL-2 melanoma = test system: SK-MEL-2 melanoma
# HOP-62 NSCLC = test system: HOP-62 NSCLC
# A549 NSCLC = test system: A549 NSCLC
# SK-MEL-28 melanoma = test system: SK-MEL-28 melanoma
# COLO 205 colon = test system: COLO 205 colon
# KM12 colon = test system: KM12 colon
# OVCAR-8 ovarian = test system: OVCAR-8 ovarian
# DU-145 prostate = test system: DU-145 prostate
# M14 melanoma = test system: M14 melanoma
# UACC-62 melanoma = test system: UACC-62 melanoma
# SF-539 CNS = test system: SF-539 CNS
# UO-31 renal = test system: UO-31 renal
# SNB-75 CNS = test system: SNB-75 CNS
# ACHN renal = test system: ACHN renal
# UACC-257 melanoma = test system: UACC-257 melanoma
# PC-3 prostate = test system: PC-3 prostate
# HCT-116 colon = test system: HCT-116 colon
# TK-10 renal = test system: TK-10 renal
# OVCAR-3 ovarian = test system: OVCAR-3 ovarian
# BT-549 breast = test system: BT-549 breast
# SK-MEL-5 melanoma = test system: SK-MEL-5 melanoma
# SF-268 CNS = test system: SF-268 CNS
# RPMI-8226 leukemia = test system: RPMI-8226 leukemia
# SF-295 CNS = test system: SF-295 CNS
# SK-OV-3 ovarian = test system: SK-OV-3 ovarian
# HS 578T breast = test system: HS 578T breast
# MALME-3M melanoma = test system: MALME-3M melanoma
# SN12C renal = test system: SN12C renal
# HCC-2998 colon = test system: HCC-2998 colon
# SW-620 colon = test system: SW-620 colon
# HCT-15 colon = test system: HCT-15 colon
# MDA-N = test system: MDA-N
# MDA-MB-435 = test system: MDA-MB-435
# OVCAR-4 ovarian = test system: OVCAR-4 ovarian
# MOLT-4 leukemia = test system: MOLT-4 leukemia
# NCI-H23 lung = test system: NCI-H23 lung
# T-47D breast = test system: T-47D breast
# OVCAR-5 ovarian = test system: OVCAR-5 ovarian
# CAKI-1 renal = test system: CAKI-1 renal
# NCI/ADR-RES ovarian = test system: NCI/ADR-RES ovarian
# SNB-19 CNS = test system: SNB-19 CNS
# EKVX NSCLC = test system: EKVX NSCLC
# HOP-92 NSCLC = test system: HOP-92 NSCLC
# HL-60(TB) leukemia = test system: HL-60(TB) leukemia
# MCF7 breast = test system: MCF7 breast
# RXF 393 renal = test system: RXF 393 renal
# 786-0 renal = test system: 786-0 renal
# MDA-MB-231 breast = test system: MDA-MB-231 breast
# NCI-H226 lung = test system: NCI-H226 lung
# K-562 leukemia = test system: K-562 leukemia
# HT29 colon = test system: HT29 colon
# LOX IMVI melanoma = test system: LOX IMVI melanoma
# NCI-H460 lung = test system: NCI-H460 lung
# IGROV1 ovarian = test system: IGROV1 ovarian
# U251 CNS = test system: U251 CNS
compound,measurement,setting,value
O=C1NC(=S)NC(=O)C1=C/C=C/c1ccc([N+](=O)[O-])cc1,TGI,SK-MEL-2 melanoma,30.9 µM
same,TGI,HOP-62 NSCLC,34.9 µM
same,TGI,A549 NSCLC,50.4 µM
same,TGI,SK-MEL-28 melanoma,10.4 µM
same,TGI,COLO 205 colon,33.6 µM
same,TGI,KM12 colon,> 100 µM
same,TGI,OVCAR-8 ovarian,47.6 µM
same,TGI,DU-145 prostate,32.7 µM
same,TGI,M14 melanoma,30.8 µM
same,TGI,UACC-62 melanoma,28.7 µM
same,TGI,SF-539 CNS,28.8 µM
same,TGI,UO-31 renal,33.5 µM
same,TGI,SNB-75 CNS,35.2 µM
same,TGI,ACHN renal,39 µM
same,TGI,UACC-257 melanoma,30.8 µM
same,TGI,PC-3 prostate,32.2 µM
same,TGI,HCT-116 colon,37.2 µM
same,TGI,TK-10 renal,22.5 µM
same,TGI,OVCAR-3 ovarian,29.1 µM
same,TGI,BT-549 breast,25 µM
same,TGI,SK-MEL-5 melanoma,42.5 µM
same,TGI,SF-268 CNS,36.8 µM
same,TGI,RPMI-8226 leukemia,> 100 µM
same,TGI,SF-295 CNS,33.1 µM
same,TGI,SK-OV-3 ovarian,36 µM
same,TGI,HS 578T breast,44.6 µM
same,TGI,MALME-3M melanoma,80.8 µM
same,TGI,SN12C renal,34.7 µM
same,TGI,HCC-2998 colon,35.7 µM
same,TGI,SW-620 colon,18.9 µM
same,TGI,HCT-15 colon,31.7 µM
same,TGI,MDA-N,27.7 µM
same,TGI,MDA-MB-435,28.3 µM
same,TGI,OVCAR-4 ovarian,36.1 µM
same,TGI,MOLT-4 leukemia,16.6 µM
same,TGI,NCI-H23 lung,29.6 µM
same,TGI,T-47D breast,71.4 µM
same,TGI,OVCAR-5 ovarian,40.2 µM
same,TGI,CAKI-1 renal,30.8 µM
same,TGI,NCI/ADR-RES ovarian,46.8 µM
same,TGI,SNB-19 CNS,34 µM
same,TGI,EKVX NSCLC,36.7 µM
same,TGI,HOP-92 NSCLC,29.5 µM
same,TGI,HL-60(TB) leukemia,> 100 µM
same,TGI,MCF7 breast,34.9 µM
same,TGI,RXF 393 renal,26.8 µM
same,TGI,786-0 renal,34.5 µM
same,TGI,MDA-MB-231 breast,35.5 µM
same,TGI,NCI-H226 lung,44.3 µM
same,TGI,K-562 leukemia,> 100 µM
same,TGI,HT29 colon,58.7 µM
same,TGI,LOX IMVI melanoma,22.6 µM
same,TGI,NCI-H460 lung,54.3 µM
same,TGI,IGROV1 ovarian,28.2 µM
same,TGI,U251 CNS,19.6 µM
